Consider 28 compounds from patent US9656988B2 (Pharmacyclics LLC, priority 2013, dated 2017).

This assay deals with BTK (Homo sapiens (Human), UniProt Q06187). Briefly: Btk in vitro inhibitory activity (one of Method A TR-FRET, Method B electrophoretic mobility shift, Method C radiometric filter binding). It counts as biochemical. For orientation: Mobility shift assays separate free from complexed probe on a gel.
Setting [1] is: determined using one of the methods of Example 355a, 355b and 355c, read-out: BTK IC50.

Read-outs that look alike come from different tables or passages of the source.

BTK, sequence (Q06187 whole entry): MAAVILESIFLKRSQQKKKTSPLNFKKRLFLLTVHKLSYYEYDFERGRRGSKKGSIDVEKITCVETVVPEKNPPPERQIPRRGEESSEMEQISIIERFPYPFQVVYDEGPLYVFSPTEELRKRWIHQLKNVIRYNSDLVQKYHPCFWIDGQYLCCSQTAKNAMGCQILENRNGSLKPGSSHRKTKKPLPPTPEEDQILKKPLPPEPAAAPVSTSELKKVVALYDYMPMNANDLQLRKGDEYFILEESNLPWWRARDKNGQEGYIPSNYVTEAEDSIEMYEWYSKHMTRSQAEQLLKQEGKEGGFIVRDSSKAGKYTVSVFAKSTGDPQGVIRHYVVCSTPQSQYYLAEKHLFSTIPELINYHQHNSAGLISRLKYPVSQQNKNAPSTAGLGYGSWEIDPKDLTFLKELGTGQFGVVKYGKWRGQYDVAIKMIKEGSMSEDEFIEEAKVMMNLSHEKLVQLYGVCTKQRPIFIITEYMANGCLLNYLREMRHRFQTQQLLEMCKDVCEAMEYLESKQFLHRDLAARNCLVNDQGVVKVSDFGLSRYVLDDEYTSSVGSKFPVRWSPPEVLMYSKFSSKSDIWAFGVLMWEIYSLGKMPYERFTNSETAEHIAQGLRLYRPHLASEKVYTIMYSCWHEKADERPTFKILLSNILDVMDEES

`CC(C)(C)c1ccc(C(=O)N[C@@H]2CCCN(c3nnc(C(N)=O)c(Nc4cccc(-c5ncccn5)c4)n3)C2)cc1` [Example 57, (R)-3-(3-(4-tert-butylbenzamido)piperidin-1-yl)-5-(3-(pyrimidin-2-yl)phenylamino)-1,2,4-triazine-6-carboxamide]: the IC50 – broadly, the concentration at which inhibition is half-maximal – under setting [1] is 0.1 to 1 µM.

As for `CC(C)(C)c1ccc(C(=O)N[C@@H]2CCCN(c3nnc(C(N)=O)c(Nc4ccc(-c5ncco5)cc4)n3)C2)cc1` [Example 58, (R)-3-(3-(4-tert-butylbenzamido)piperidin-1-yl)-5-(4-(oxazol-2-yl)phenylamino)-1,2,4-triazine-6-carboxamide], the IC50 under setting [1] was in the range of 0.01 to 0.1 µM.

Turning to `NC(=O)c1nnc(N2CCC[C@@H](NC(=O)N3CCOCC3)C2)nc1Nc1ccc(-c2ncco2)cc1` [Example 59, (R)—N-(1-(6-carbamoyl-5-(4-(oxazol-2-yl)phenylamino)-1,2,4-triazin-3-yl)piperidin-3-yl)morpholine-4-carboxamide], the IC50 under setting [1] lay in the range of 0.01 to 0.1 µM.

Regarding `CC(C)(C)OC(=O)N1CCC[C@@H](Nc2nnc(C(N)=O)c(Nc3ccc(C(=O)N4CCOCC4)cc3)n2)C1` [Example 60, (R)-tert-butyl 3-(6-carbamoyl-5-(4-(morpholine-4-carbonyl)phenylamino)-1,2,4-triazin-3-ylamino)piperidine-1-carboxylate], the 50% inhibitory concentration (IC50) under setting [1] lay in the range of 0.1 to 1 µM. For `NC(=O)c1nnc(N[C@@H]2CCCNC2)nc1Nc1ccc(C(=O)N2CCOCC2)cc1` [Example 61, (R)-5-(4-(morpholine-4-carbonyl)phenylamino)-3-(piperidin-3-ylamino)-1,2,4-triazine-6-carboxamide], under setting [1], the IC50 lay within 1 to 10 µM. On to `CC(C)(C)c1ccc(C(=O)N2CCC[C@@H](Nc3nnc(C(N)=O)c(Nc4ccc(C(=O)N5CCOCC5)cc4)n3)C2)cc1` [Example 62, (R)-3-(1-(4-tert-butylbenzoyl)piperidin-3-ylamino)-5-(4-(morpholine-4-carbonyl)phenylamino)-1,2,4-triazine-6-carboxamide], for which, under setting [1], the IC50 was 0.01 to 0.1 µM.

Regarding `CCC(=O)N1CCC[C@@H](Nc2nnc(C(N)=O)c(Nc3ccc(C(=O)N4CCOCC4)cc3)n2)C1` [Example 63, (R)-5-(4-(morpholine-4-carbonyl)phenylamino)-3-(1-propionylpiperidin-3-ylamino)-1,2,4-triazine-6-carboxamide], the IC50 under setting [1] is less than 0.01 µM. Regarding `NC(=O)c1nnc(N[C@@H]2CCCN(C(=O)C3CC3)C2)nc1Nc1ccc(C(=O)N2CCOCC2)cc1` [Example 64, (R)-3-(1-(cyclopropanecarbonyl)piperidin-3-ylamino)-5-(4-(morpholine-4-carbonyl)phenylamino)-1,2,4-triazine-6-carboxamide], under setting [1], the IC50 is less than 0.01 µM.

Turning to `C=CC(=O)N1CCC[C@@H](Nc2nnc(C(N)=O)c(Nc3ccc(C(=O)N4CCOCC4)cc3)n2)C1` [Example 65, (R)-3-(1-acryloylpiperidin-3-ylamino)-5-(4-(morpholine-4-carbonyl)phenylamino)-1,2,4-triazine-6-carboxamide], the IC50 under setting [1] is less than 0.01 µM.

Take `CN(C)C/C=C/C(=O)N1CCC[C@@H](Nc2nnc(C(N)=O)c(Nc3ccc(C(=O)N4CCOCC4)cc3)n2)C1` [Example 66, (R,E)-3-(1-(4-(dimethylamino)but-2-enoyl)piperidin-3-ylamino)-5-(4-(morpholine-4-carbonyl)phenylamino)-1,2,4-triazine-6-carboxamide]: the IC50 under setting [1] is less than 0.01 µM. As for `CN(C/C=C/C(=O)N1CCC[C@@H](Nc2nnc(C(N)=O)c(Nc3ccc(C(=O)N4CCOCC4)cc3)n2)C1)C1CC1` [Example 67, (R,E)-3-(1-(4-(cyclopropyl(methyl)amino)but-2-enoyl)piperidin-3-ylamino)-5-(4-(morpholine-4-carbonyl)phenylamino)-1,2,4-triazine-6-carboxamide], the IC50 under setting [1] was less than 0.01 µM. On the same count and under the same terms, to `CC(C)(C)OC(=O)N1CC[C@@H](Nc2nnc(C(N)=O)c(Nc3ccc(C(=O)N4CCOCC4)cc3)n2)C1` [Example 68, (R)-tert-butyl 3-(6-carbamoyl-5-(4-(morpholine-4-carbonyl)phenylamino)-1,2,4-triazin-3-ylamino)pyrrolidine-1-carboxylate] belongs 0.1 to 1 µM; to `NC(=O)c1nnc(N[C@@H]2CCNC2)nc1Nc1ccc(C(=O)N2CCOCC2)cc1` [Example 69, (R)-5-(4-(morpholine-4-carbonyl)phenylamino)-3-(pyrrolidin-3-ylamino)-1,2,4-triazine-6-carboxamide], 0.01 to 0.1 µM; to `CN(C/C=C/C(=O)N1CC[C@@H](Nc2nnc(C(N)=O)c(Nc3ccc(C(=O)N4CCOCC4)cc3)n2)C1)C1CC1` [Example 71, (R,E)-3-(1-(4-(cyclopropyl(methyl)amino)but-2-enoyl)pyrrolidin-3-ylamino)-5-(4-(morpholine-4-carbonyl)phenylamino)-1,2,4-triazine-6-carboxamide], 0.01 to 0.1 µM. Still for that read-out and setting: for `CC(C)(C)c1ccc(C(=O)N[C@@H]2CCCN(c3cnc(C(N)=O)c(Nc4ccc(C(=O)N5CCOCC5)cc4)n3)C2)cc1` [Example 73, (R)-5-(3-(4-tert-butylbenzamido)piperidin-1-yl)-3-(4-(morpholine-4-carbonyl)phenylamino)pyrazine-2-carboxamide] the value was less than 0.01 µM. On to `C=CC(=O)N1CCC[C@@H](N(C)c2cnc(C(N)=O)c(Nc3ccc(C(=O)N4CCOCC4)cc3)n2)C1` [Example 74, (R)-5-((1-acryloylpiperidin-3-yl)(methyl)amino)-3-(4-(morpholine-4-carbonyl)phenylamino)pyrazine-2-carboxamide], for which the IC50 under setting [1] was less than 0.01 µM and the IC50 (read-out: Btk (IC50)) was less than 0.01 µM.

For `CN(C)C/C=C/C(=O)N1CCC[C@@H](N(C)c2cnc(C(N)=O)c(Nc3ccc(C(=O)N4CCOCC4)cc3)n2)C1` [Example 75, (R,E)-5-((1-(4-(dimethylamino)but-2-enoyl)piperidin-3-yl)(methyl)amino)-3-(4-(morpholine-4-carbonyl)phenylamino)pyrazine-2-carboxamide], the IC50 under setting [1] is less than 0.01 µM. In the case of `CC(C)(C)c1ccc(C(=O)N[C@@H]2CCCN(c3cnc(C(N)=O)c(Nc4ccc(C(=O)N5CCOCC5)cc4)c3)C2)cc1` [Example 76, (R)-5-(3-(4-tert-butylbenzamido)piperidin-1-yl)-3-(4-(morpholine-4-carbonyl)phenylamino)picolinamide], under setting [1], the IC50 lay in the range of 0.1 to 1 µM. Still for that read-out and setting: for `Cc1cc(Nc2cc(N3CCC[C@@H](NC(=O)c4ccc(C(C)(C)C)cc4)C3)cnc2C(N)=O)sn1` [Example 77, (R)-5-(3-(4-tert-butylbenzamido)piperidin-1-yl)-3-(3-methylisothiazol-5-ylamino)picolinamide] the value was 0.01 to 0.1 µM. Take `CC(C)(C)c1ccc(NC(=O)N[C@@H]2CCCN(c3nnc(C(N)=O)c(Nc4ccc(C(=O)N5CCOCC5)cc4)n3)C2)cc1` [Example 79, (R)-3-(3-(3-(4-tert-butylphenyl)ureido)piperidin-1-yl)-5-(4-(morpholine-4-carbonyl)phenylamino)-1,2,4-triazine-6-carboxamide]: the IC50 fell in the range of 0.01 to 0.1 µM (Btk (IC50)) and 0.01 to 0.1 µM under setting [1]. For the compound `COc1ccc(NC(=O)N[C@@H]2CCCN(c3nnc(C(N)=O)c(Nc4ccc(C(=O)N5CCOCC5)cc4)n3)C2)cc1` [Example 80, (R)-3-(3-(3-(4-methoxyphenyl)ureido)piperidin-1-yl)-5-(4-(morpholine-4-carbonyl)phenylamino)-1,2,4-triazine-6-carboxamide], the IC50 lay in the range of 0.01 to 0.1 µM (Btk (IC50)) and 0.01 to 0.1 µM under setting [1]. `CN(C)C(=O)N[C@@H]1CCCN(c2nnc(C(N)=O)c(Nc3ccc(C(=O)N4CCOCC4)cc3)n2)C1` [Example 81, (R)-3-(3-(3,3-dimethylureido)piperidin-1-yl)-5-(4-(morpholine-4-carbonyl)phenylamino)-1,2,4-triazine-6-carboxamide]: the IC50 runs as follows: (Btk (IC50)) 0.01 to 0.1 µM; under setting [1], 0.01 to 0.1 µM. On to `CC(C)C1CCN(C(=O)N[C@@H]2CCCN(c3nnc(C(N)=O)c(Nc4ccc(C(=O)N5CCOCC5)cc4)n3)C2)CC1` [Example 82, (R)-3-(3-(4-isopropylpiperidine-1-carboxamido)piperidin-1-yl)-5-(4-(morpholine-4-carbonyl)phenylamino)-1,2,4-triazine-6-carboxamide], for which the IC50 runs as follows: (Btk (IC50)) 0.01 to 0.1 µM; under setting [1], 0.01 to 0.1 µM.

For the compound `NC(=O)c1nnc(N2CCC[C@@H](NC(=O)C(=O)N3CCCCC3)C2)nc1Nc1ccc(C(=O)N2CCOCC2)cc1` [Example 83, (R)-5-(4-(morpholine-4-carbonyl)phenylamino)-3-(3-(2-oxo-2-(piperidin-1-yl)acetamido)piperidin-1-yl)-1,2,4-triazine-6-carboxamide], the IC50 fell in the range of 0.1 to 1 µM (Btk (IC50)) and 0.1 to 1 µM under setting [1].

Consider `NC(=O)c1nnc(N2CCC[C@@H](NC(=O)c3ccc4ccccc4n3)C2)nc1Nc1ccc(C(=O)N2CCOCC2)cc1` [Example 84, (R)—N-(1-(6-carbamoyl-5-(4-(morpholine-4-carbonyl)phenylamino)-1,2,4-triazin-3-yl)piperidin-3-yl)quinoline-2-carboxamide], for which the IC50 lay within 0.01 to 0.1 µM (Btk (IC50)) and 0.01 to 0.1 µM under setting [1]. Regarding `NC(=O)c1nnc(N2CCC[C@@H](NC(=O)c3ccc4ncccc4c3)C2)nc1Nc1ccc(C(=O)N2CCOCC2)cc1` [Example 85, (R)—N-(1-(6-carbamoyl-5-(4-(morpholine-4-carbonyl)phenylamino)-1,2,4-triazin-3-yl)piperidin-3-yl)quinoline-6-carboxamide], the IC50 (Btk (IC50)) was in the range of 0.01 to 0.1 µM and the IC50 under setting [1] was in the range of 0.01 to 0.1 µM. As to `NC(=O)c1nnc(N2CCC[C@@H](NC(=O)c3ccc(OCC(F)(F)F)cc3)C2)nc1Nc1ccc(C(=O)N2CCOCC2)cc1` [Example 86, (R)-5-(4-(morpholine-4-carbonyl)phenylamino)-3-(3-(4-(2,2,2-trifluoroethoxy)benzamido)piperidin-1-yl)-1,2,4-triazine-6-carboxamide], the IC50 (read-out: Btk (IC50)) is less than 0.01 µM. Turning to `CCOc1ccc(C(=O)N[C@@H]2CCCN(c3nnc(C(N)=O)c(Nc4ccc(C(=O)N5CCOCC5)cc4)n3)C2)cc1` [Example 88, (R)-3-(3-(4-ethoxybenzamido)piperidin-1-yl)-5-(4-(morpholine-4-carbonyl)phenylamino)-1,2,4-triazine-6-carboxamide], the IC50 under setting [1] is less than 0.01 µM and the 50% inhibitory concentration (IC50) (read-out: Btk (IC50)) was less than 0.01 µM.
